The numbers were not newly measured in PMC8452925, “Differential Modulation of the Voltage-Gated Na^+ Channel 1.6 by Peptides Derived From Fibroblast Growth Factor 14” (Frontiers in Molecular Biosciences, 2021), which cites them from elsewhere.

The subject of data set [1] is FGF14^Y158A:Nav1.6 complex. As to conditions: 50 µM, LCA, ref Singh et al., 2020. On the procedure:
In our previous study ([Singh et al., 2020]), we pharmacologically evaluated all three tetrapeptides at a single concentration of 50 µM using the LCA. […] For example, in the FGF14^V160A condition, all three peptides lost activity, whereas in the FGF14^Y158A condition, FLPK retaine ...

Data set [2] deals with human Nav1.6 with FGF14-GFP. As to conditions: ref Singh et al., 2020. From the text:
(§1) To guide drug discovery efforts targeting the PPI interface between FGF14 and the CTD of Nav1.6, we previously developed and interrogated a homology model of the PPI interface to identify putative clusters of amino acids central to assembly of the complex ([Ali et al., 2014], [2016]). These investigations identified the Phe-Leu-Pro-Lys (FLPK) and Pro-Leu-Glu-Val (PLEV) motifs on the β12 sheet of FGF14, and the Glu-Tyr-Tyr-Val (EYYV) motif on the β8-β9 loop of FGF14, as being putatively essential for FGF14:Nav1.6 complex assembly ([Ali et al., 2014], [2016]). To investigate if short peptides de ...

A further data set addresses T1, FGF14:Nav1.6 complex (Homo sapiens, UniProt Q92915).
T1 construct: expressed in transfected cells
T1 sequence (Q92915 1-252 isoform Q92915-2): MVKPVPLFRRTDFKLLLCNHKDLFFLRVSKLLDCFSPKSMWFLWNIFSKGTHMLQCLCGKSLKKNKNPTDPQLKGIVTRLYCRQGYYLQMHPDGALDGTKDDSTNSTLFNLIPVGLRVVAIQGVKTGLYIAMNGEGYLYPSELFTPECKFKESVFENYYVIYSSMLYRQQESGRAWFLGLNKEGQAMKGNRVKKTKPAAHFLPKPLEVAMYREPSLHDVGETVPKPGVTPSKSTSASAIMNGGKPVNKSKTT
As to conditions: ref Singh et al., 2020.
Description: as §1

A further data set relates to MSNs of the NAc. As to conditions: ref Singh et al., 2020.
Description: as §1

On to “Phe-Leu-Pro-Lys [FLPK, tetrapeptide from the β12 sheet of FGF14, previously evaluated (Singh et al., 2020)]”, for which, in data set [1], the “Effect on complex assembly with FGF14^Y158A (in words)” value is on record as “retained its inhibitory effects on FGF14:Nav1.6 complex assembly”. Besides, in data set [2], the “Effect on FGF14-mediated regulation of Nav1.6 channel activity (in words)” value is “reversed FGF14-mediated regulatory effects on Nav1.6 channel activity”. The “Effect on FGF14:Nav1.6 complex assembly (in words)” value at FGF14:Nav1.6 complex is “inhibited FGF14:Nav1.6 complex assembly”. Besides, the “Effect on neuronal excitability (in words)” value in the data set with MSNs of the NAc is given as “affected neuronal excitability of MSNs of the NAc”.
